Assay results as given in PMC8333425, “Discovery of a dual Ras and ARF6 inhibitor from a GPCR endocytosis screen” (Nature Communications, 2021).
“And” between values parts separate entries of the source, which are not always exact repeats. Equal entries are not always repeated.

Key:
[1] = system: β2AR; test: Endosomal BRET assay of isoproterenol-mediated β2AR internalization; assay type: cell-based, human
Source text: We performed a HT campaign in HEK293 cells using the bystander endosomal BRET sensor, which consists of a Renilla luciferase (RlucII)-tagged AT1R and an acceptor renilla GFP (rGFP) anchored to endosomes through an Endofin-FYVE (Endo-rGFP) domain[12]. AngII-mediated trafficking of AT1R to endosomes was screened against commercial libraries of ~115,000 small molecules (Fig. 1a and Supplementary Data 1). Because our assay is based on luminescence and fluorescence, we excluded 6610 compounds that quenched more than 50% of the luciferase or GFP signals. After excluding 5 AT1R antagonists, we conserved hit compounds blocking by more than 40%, as well as those potentiating by more than 100% receptor internalization. From this collection of 943 compounds, a second validation on AT1R internalization was performed using the same BRET assay, as well as on the agonist-mediated B2R internalization, this time using B2R-RlucII and Endo-rGFP. Only compounds that were revalidated on AT1R and affected B2R endocytosis were kept, which included forty hits (20 potentiators and 20 inhibitors) (Fig. 1b and Supplementary Data 2). We focused on inhibitors that were commercially available at the beginning of the project and tested their cell toxicity by microscopy, looking at cells expressing B2R tagged with YFP, which highlights cell contours and potential morphological changes, such as rounding up of cells following treatment with 50 μM of the compounds that may have indicated cell death. None of the inhibitors tested caused abnormal cell morphological changes when cells were treated with compounds as compared to DMSO-treated cells. Inhibitors were also assessed in terms of structure novelty, derivatization potential, and commercial availability of analogs (within 95–98% similarity from Tanimoto metric, Sci-Finder, https://scifinder-n.cas.org), for structure-activity relationship studies (SAR). They were scored 1–5, from best to worst. We excluded compounds with potential nucleophilic reactivity (e.g., Michael addition: compounds 7, 26, and 27), those reported to have biological activities (compounds 8, 20, 25, 30, and 35) and/or showing autofluorescence (compound 26). Compound 19 ranked high, but only had one other molecule with a similar structure available. Although other molecules could be interesting in their own rights as endocytosis inhibitors (e.g., compounds 1, 9, 11, 12, 13, 24, 31, and 37), we focused on compound 21 (Fig. 1c) because not only did it rank high in our analysis, but it was also the only compound with substantially more similar analogs commercially available at the time of these investigations. In the screen and the follow-up validation assay, 21 inhibited more than 50% AT1R internalization and more than 65% B2R internalization (Supplementary Data 2). […] Because β-arrestins are critically involved in GPCR endocytosis and trafficking in cells, we assessed 21’s effects on β-arrestins’ recruitment to AT1R and B2R at the PM using a BRET assay, as well as their trafficking into endosomes by microscopy.
HEK293SL cells were seeded at a density of 7.5 × 10^5 cells per 100-mm dish and 24 h later, transiently transfected as such. For receptor internalization experiments, cells were transfected with 0.12 μg AT1R-RlucII, B2R-RlucII, or β2AR-RlucII and 0.48 μg of either rGFP-CAAX (to assess removal from the PM) or rGFP-FYVE (to assess accumulation in the endosomes). For β-arrestin recruitment assays, cells were transfected with 0.48 μg of receptor-YFP along with 0.12 μg of β-arrestin-RlucII. For β-arrestin/AP-2 binding experiments, cells were transfected with 1 μg Flag-AT1R, 1 μg β2-Adaptin-YFP, and 0.12 μg β-arrestin2-RlucII. For G protein activation, cells were transfected with 3 μg of sp-Flag-AT1R along with either 4.5 μg of the Gαq-polycistronic BRET sensor or 0.24 μg of the Gαi3-RlucII and 0.6 μg of GFP10-Gγ2 and Gβ1 sensors or 0.12 μg PKN-RBD-RlucII and 0.48 μg of rGFP-CAAX. […]

[2] = system: ERK1/2 activation by B2R; test: Western blot of B2R-mediated ERK1/2 phosphorylation; assay type: cell-based, human; conditions: for p-ERK1/2 over ERK1/2, normalized to basal (0 min), B2R: Comp 21 50 μM, individual experiments
Protocol: HEK293SL cells (10^5 cells per well) were seeded in a poly-L-lysine-coated six-well plate and transiently transfected with 3 μg Flag-AT1R, HA-B2R or HA-β2AR and/or 500 ng Flag-MEK1-WT, Flag-MEK1-DD, Flag-BRAF-WT, Flag-BRAF-V600E, Flag-K-Ras-WT, Flag-K-Ras-G12V, HA-ARF6-WT, or HA-ARF6-T27N. Gαq/11 KO and βarr1/2 KO cells were seeded onto 100 mm dishes at a density of 10^6 cells per dish. Next day, cells were transfected with 3 μg AT1R alone or along with 500 ng of β-arrestin2 using PEI. After 18 h of transfection, cells were detached and re-seeded onto poly-L-lysine coated 12-well plates (~1.5–2 × 10^5cells/well) for subsequent experiments. Forty-eight hours post transfection, in a 37 °C water bath, cells were serum-starved for 30 min, pretreated with DMSO (0.1%) or compound 21/Rasarfin (50 µM or at indicated concentrations) for 30 min, then stimulated or not with the indicated ligand [AngII (1 µM), BK (1 µM), Iso (10 µM) or EGF (100 ng/ml)] at indicated times. Cells were put on ice, washed with PBS and solubilized in 2x laemmli buffer (250 mM Tris–HCl pH 6.8, 2% SDS (w/v), 10% glycerol (v/v), 0.01% bromophenol blue (w/v) and 5% β-mercaptoethanol (v/v)) by heating at 65 °C for 15 min. Lysates were resolved on 10 or 14% SDS-PAGE, transferred to nitrocellulose membranes and immunoblotted for p-ERK1/2, ERK1/2, p-Akt, Akt, HA, Myc, β-actin or FLAG. ImageLab 5.2 software was used to quantify the digital blots as fold of the phosphorylated protein over total protein, which were then normalized as indicated in the figure legends. Uncropped immunoblots are provided in the Source Data file.

For `CC(C)C(=O)N1CCN(c2ccc(NC(=O)c3cc4ccccc4o3)cc2Cl)CC1` [Compound 21], the IC50 ([1]; Homo sapiens, read-out: IC50 for inhibition of isoproterenol-mediated β2AR internalization into endosomes) was 15 µM, the “β2AR internalization into endosomes, ligand-promoted BRET (Mean)” value (from here on “β2AR internalization into endosomes”) ([1]; Log [Comp21] (M) -4.3) was 36.2133 percent compared to DMSO and the “β2AR internalization into endosomes” value ([1]; Log [Comp21] (M) -4.6) was 48.1993 percent compared to DMSO. The “β2AR internalization into endosomes” value ([1]; Log [Comp21] (M) -5) was 64.3705 percent compared to DMSO, the “β2AR internalization into endosomes” value ([1]; Log [Comp21] (M) -5.3) was 89.3672 percent compared to DMSO and the “β2AR internalization into endosomes” value ([1]; Log [Comp 21] (M) -6) was 95.9498 percent compared to DMSO. The “β2AR internalization into endosomes” value ([1]; Log [Comp21] (M) -6.3) was 95.3626 percent compared to DMSO, the “β2AR internalization into endosomes” value ([1]; Log [Comp 21] (M) -7) was 95.4832 percent compared to DMSO and the “MAPK response promoted by B2R” value ([2]; 50 μM) was “blocked MAPK responses”. For the same compound, the “p-ERK1/2 over ERK1/2, normalized to basal (0 min), B2R” value (from here on “p-ERK1/2 over ERK1/2, normalized”) ([2]; time 0 min) was 1 (3×) and 1.039, the “p-ERK1/2 over ERK1/2, normalized” value ([2]; time 2 min) was 1.954 and 3.081 and 1.486 and 1.1152 and the “p-ERK1/2 over ERK1/2, normalized” value ([2]; time 5 min) was 0.9797 and 0.9619 and 1.157 and 1.051.
